Data published in patent US20190234940A1, “METABOLIC RESTRICTION IN CELL-BASED ASSAYS” (priority 2016, published 2019).
Where a name gives a salt, the structure may show the parent alone. Read-outs that look alike come from different tables or passages of the source. Each block holds one molecule with its values, some of them ahead of it.

How the values were obtained:
CYP3A4 = target: T1, CYP3A4 (Homo sapiens, UniProt P08684); test: P450-Glo CYP3A4 activity in HBV-infected HepaRG cells; format: cell-based; settings: day 11 p.i.
T1 construct: CYP1A2, CYP2C9, and CYP3A4 activity were determined in HBV-infected HepaRG cells; endogenous in cells; host or cells: differentiated HepaRG cells infected with HBV
T1 sequence (P08684 whole entry): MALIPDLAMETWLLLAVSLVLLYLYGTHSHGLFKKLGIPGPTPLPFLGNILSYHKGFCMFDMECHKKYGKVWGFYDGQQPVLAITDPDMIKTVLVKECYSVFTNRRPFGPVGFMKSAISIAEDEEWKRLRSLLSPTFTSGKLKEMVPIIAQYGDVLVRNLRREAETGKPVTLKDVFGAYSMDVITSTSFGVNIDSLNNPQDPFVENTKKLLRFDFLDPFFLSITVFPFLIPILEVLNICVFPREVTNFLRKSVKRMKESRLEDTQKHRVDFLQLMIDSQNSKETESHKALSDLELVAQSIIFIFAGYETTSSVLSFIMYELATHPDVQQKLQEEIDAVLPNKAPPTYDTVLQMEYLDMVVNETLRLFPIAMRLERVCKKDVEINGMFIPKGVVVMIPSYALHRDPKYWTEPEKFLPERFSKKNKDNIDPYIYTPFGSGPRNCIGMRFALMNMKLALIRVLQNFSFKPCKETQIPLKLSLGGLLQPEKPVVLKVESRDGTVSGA

CYP1A2 = target: T2, CYP1A2 (Homo sapiens, UniProt P05177); test: P450-Glo CYP1A2 activity in HBV-infected HepaRG cells; format: cell-based; settings: day 11 p.i.
T2 construct: CYP1A2, CYP2C9, and CYP3A4 activity were determined in HBV-infected HepaRG cells; endogenous in cells; host or cells: differentiated HepaRG cells infected with HBV
T2 sequence (P05177 1-516): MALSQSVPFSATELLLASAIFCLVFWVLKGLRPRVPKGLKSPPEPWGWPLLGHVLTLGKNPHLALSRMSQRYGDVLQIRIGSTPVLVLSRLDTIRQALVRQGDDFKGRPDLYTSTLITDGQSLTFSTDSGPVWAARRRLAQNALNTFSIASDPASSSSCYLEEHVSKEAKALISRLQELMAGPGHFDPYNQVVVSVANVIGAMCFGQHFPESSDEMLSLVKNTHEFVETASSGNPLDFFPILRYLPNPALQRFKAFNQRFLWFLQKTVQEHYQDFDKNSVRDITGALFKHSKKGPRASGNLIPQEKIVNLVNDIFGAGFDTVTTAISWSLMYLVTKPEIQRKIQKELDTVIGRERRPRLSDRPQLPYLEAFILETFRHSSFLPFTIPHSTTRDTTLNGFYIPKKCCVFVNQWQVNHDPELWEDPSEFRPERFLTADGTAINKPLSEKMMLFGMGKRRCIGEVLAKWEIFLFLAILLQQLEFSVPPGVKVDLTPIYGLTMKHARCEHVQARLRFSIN

CYP2C9 [1] = target: T3, CYP2C9 (Homo sapiens, UniProt P11712); test: P450-Glo CYP2C9 activity in HBV-infected HepaRG cells
T3 sequence (P11712 whole entry): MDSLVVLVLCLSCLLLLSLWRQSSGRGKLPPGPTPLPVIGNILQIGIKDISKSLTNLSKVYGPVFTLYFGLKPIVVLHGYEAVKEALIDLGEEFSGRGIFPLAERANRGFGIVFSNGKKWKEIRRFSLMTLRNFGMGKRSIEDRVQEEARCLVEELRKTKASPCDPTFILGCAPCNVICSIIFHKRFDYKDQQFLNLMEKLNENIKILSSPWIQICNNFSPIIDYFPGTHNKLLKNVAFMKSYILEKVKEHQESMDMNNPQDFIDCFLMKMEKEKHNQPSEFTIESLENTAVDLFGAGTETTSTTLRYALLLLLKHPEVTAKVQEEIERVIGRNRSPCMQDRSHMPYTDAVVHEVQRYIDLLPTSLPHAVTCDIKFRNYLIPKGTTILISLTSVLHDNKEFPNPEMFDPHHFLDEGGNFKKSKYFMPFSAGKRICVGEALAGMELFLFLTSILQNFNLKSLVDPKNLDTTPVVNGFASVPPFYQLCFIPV

CYP2C9 [2] = target: T3, CYP2C9
[3] = ABT 10 or 20 mM 1 h twice, or 0.1 or 0.2 mM twice for 3 days (days 5 and 8 p.i.)
[4] = SKF-525A 100 or 200 μM 1 h twice, or 2 or 20 μM twice for 3 days

inhibition of CYP3A4 (CYP3A4; [3]): > 90% | inhibition of CYP1A2 (CYP1A2; [3]): > 90% | inhibition of CYP2C9 (CYP2C9 [1]; ABT 10 or 20 mM 1 h twice, or 0.1 or 0.2 mM twice for 3 days (days 5 and 8 p.i.), day 11 p.i.): 72%-75%
SMILES: Nn1nnc2ccccc21 [ABT, 1-aminobenzotriazole]

CYP3A4 inhibition relative to other CYPs (CYP3A4; [4]): inhibited CYP3A4 better than CYP2C9 | CYP1A2 inhibition relative to other CYPs (CYP1A2; [4]): inhibited CYP1A2 less
SMILES: CCCC(C(=O)OCCN(CC)CC)(c1ccccc1)c1ccccc1 [SKF-525A, proadifen hydrochloride]

SMILES: Cc1nc2c([nH]1)c(=O)n(C)c(=O)n2Cc1ccco1 [furafylline]
CYP2C9 inhibition (CYP2C9 [1]; furafylline alone, titration): also inhibit

SMILES: CC(=O)N1CCN(c2ccc(OCC3COC(Cn4ccnc4)(c4ccc(Cl)cc4Cl)O3)cc2)CC1 (stereo not shown) [ketoconazole]
CYP2C9 inhibition (CYP2C9 [2]): also inhibit
